Results: article PMC11475369, “Exploring the Potential of Synthetic Cannabinoids: Modulation of Biological Activity of Normal and Cancerous Human Colon Epithelial Cells” (Cells, 2024)
Converted amounts (≈) assume the structure as drawn. “And” between values parts separate entries of the source, which are not always exact repeats. Equal values may be shown once.

Tests used:
[1] = DPPH free radical scavenging test
Method: The DPPH biochemical test is used to determine the antioxidant potential of tested compounds. This method is based on the ability of compounds to reduce the stable dark purple 2,2-diphenyl-1-picrylhydrazyl radical (DPPH) to yellow diphenyl-picrylhydrazine. The following concentrations of the tested cannabinoids were prepared: 25, 100, and 200 μg/mL in pure ethanol. Next, the DPPH solution (0.2 mg/mL in ethanol) was prepared. As a quantitative standard, Trolox in increasing concentrations (1–50 μg/mL) was prepared in ethanol. The procedure was carried out as follows: 100 µL of the specified concentrations of the tested cannabinoids or standard points were added to the wells of a 96-well plate in eight replicates. Next, 100 μL of a DPPH solution was added to 100 μL of each sample or standard in a 96-well plate. Subsequently, 20 min. incubation at room temperature was carried out, and spectrophotometric reading was performed at 515 nm using an EL800 Universal Microplate Reader (BioTek Instruments, Winooski, VT, USA). Decreasing absorbance meant increasing antioxidant activity of the preparations. The final value of the free radical scavenging activity of the cannabinoids was calculated based on the standard curve and the following formula:DPPH scavenging effect (%) = [(Xcontrol − Xcompound/Xcontrol) × 100]
Xcontrol is the absorbance of the control, and Xcompound is the absorbance in the presence of cannabinoids

CCD 841 CoTr cells = assay: Neutral Red (NR) uptake assay, viability of CCD 841 CoTr cells; type: cell-based; conditions: Homo sapiens; CCD 841 CoTr colon normal cells, 24 h incubation
Method: The HT29 cell line (ATCC no. HTB-38) (human colon adenocarcinoma) was used in the present study. Cells were cultivated in RPMI 1640 culture medium with 10% fetal calf serum (FCS) (GibcoTM, Paisley, UK), supplemented with antibiotics (100 U/mL penicillin and 100 μg/mL streptomycin) (Sigma, St. Louis, MO, USA). The cell culture was performed in standard conditions, i.e., at 37 °C in a humidified atmosphere with 5% CO2. The CCD 841 CoTr cell line (ATCC no. CRL-1807) (human normal colon epithelium) was cultivated in RPMI 1640 +DMEM (1:1) medium (Sigma, St. Louis, MO, USA) with 10% FCS and the addition of antibiotics. The culture was carried out at 34 °C in a 5% CO2/95% air atmosphere.
After seeding (1 × 10^5 cells/mL) in a 96-well plate, the cells were incubated for 24 h. Thereafter, the tested compounds (100 μL) at a concentration range of 0–200 μg/mL in the culture medium were added to the wells (100 μL). The incubation lasted for 24 h. After that time, the culture medium was removed and a 0.4% Neutral Red solution in the culture medium was added to each well. The incubation was continued for another 3 h. After the incubation, the medium with the NR dye was discarded, and 4% paraformaldehyde in 1% CaCl2 was added for cell fixation (200 μL) and incubated for 3 min. Intracellular dye deposits were solubilized using 1% […] in a 50% ethanol solution (100 μL). The plates were then gently shaken (20 min.) at room temperature to dissolve and release the dye from the cells. Finally, spectrophotometric measurement was performed at 540 nm using an EL800 Universal Microplate Reader (BioTek Instruments, Winooski, VT, USA).

HT29 cells = assay: Flow cytometry (PI) cell cycle analysis of HT29 cells; type: cell-based, human; conditions: HT29, 25 μg/mL, 24 h
Method: In the flow cytometric study, we assessed the impact of the cannabinoids at a concentration of 25 μg/mL on the distribution of cell cycle phases in the normal and cancer cells after 24 h incubation. Both adhered, and non-adsorbed (floating) cells were used to perform the analyses. They were collected after 24 h of incubation with the tested cannabinoids and centrifuged (3000 rpm/5 min.). Next, the cell pellet was rinsed and suspended in PBS w/o Ca^2+ and Mg^2+ ions and centrifuged again (3000 rpm/5 min.). The cell pellet was suspended and fixed in 70% ethanol (1 mL). Untreated cells served as a control. The cells were stored at −20 °C for 1 week. After that time, in accordance with the manufacturer protocol, the cells were subjected to the PI staining procedure (PI/RNase Staining Buffer, BD PharmingenTM, BD Biosciences, San Jose, CA, USA). Briefly, 1 mL of PBS w/o Ca^2+ and Mg^2+ ions was added to 1 mL of ethanol and incubated with gentle stirring for 5 min. at room temperature. Next, the cells were centrifuged (3000 rpm/5 min.) and suspended in PBS w/o Ca^2+ and Mg^2+ ions with gentle stirring for 5 min. at room temperature. The cells were centrifuged once again (3000 rpm/5 min.) and the cell pellet was suspended in 500 μL of PI/RNase Staining Buffer. The incubation was carried out for 15 min. at room temperature. Finally, the intensity of the PI fluorescence was measured using FACS Calibur (BD Pharmingen^TM). The obtained data were analyzed using Cell Quest Pro Version 6.0. for the Macintosh operating system (BD Pharmingen^TM). The percentage of cells in the appropriate phases of the cycle was calculated based on all analyzed gated cells. A total of 10,000 events were measured per sample.

[2] = Ferric-reducing antioxidant power assay (FRAP)
Method: The antioxidant activity in the FRAP method determines the ability of the analyzed compounds to reduce iron ions. This allowed for the direct determination of the reducing capacity of the tested cannabinoids. The principle of the method was based on measuring the reduction in the tPtZ compound (iron-2,4,6-tripyridyl-S-[…] complex) under the influence of the cannabinoids. The following concentrations of the cannabinoids were prepared: 25, 100, and 200 μg/mL in Milli-Q water. […] The procedure was carried out as follows: each compound, at a concentration of 1 mL, was mixed with 1 mL of 0.2 M sodium phosphate buffer (pH 6.6) and 1 mL of 1% potassium ferricyanide. The mixture was vortexed and incubated for 30 min. at 37 °C. After the incubation, 1 mL of 10% trichloroacetic acid (w/v) was added to each sample, and the preparations were centrifuged at 1000 g for 5 min. Next, an equal volume of Milli-Q water and the upper layer of the samples (1 mL + 1 mL) were mixed with 100 μL of 0.1% ferric chloride and subjected to spectrophotometric reading at 700 nm using an EL800 Universal Microplate Reader (BioTek Instruments, Winooski, VT, USA). The higher the absorbance, the higher the iron ion-reducing activity of the tested cannabinoids is.

[3] = cannabinoid concentration 25 μg/mL
[4] = cannabinoid concentration 100 μg/mL
[5] = cannabinoid concentration 200 μg/mL

SMILES	Reduction Value Corresponding to the Trolox Concentration (DPPH) [1, 3]	Reduction Value Corresponding to the Trolox Concentration (DPPH) [1, 4]	Reduction Value Corresponding to the Trolox Concentration (DPPH) [1, 5]	IC50 (CCD 841 CoTr cells)	Effect on cell cycle transitions (in words) (HT29 cells)	Increase in the number of cells in the sub-G1 phase compared to the control (HT29 cells)	Percentage of cells in G1 phase (HT29 cells)	Percentage of cells in G2 phase (HT29 cells)	Percentage of cells in S phase (HT29 cells)	Percentage of cells in sub-G1 phase (HT29 cells)	Reduction Value Corresponding to the Ascorbic Acid Concentration (FRAP) [2, 3]	Reduction Value Corresponding to the Ascorbic Acid Concentration (FRAP) [2, 4]	Reduction Value Corresponding to the Ascorbic Acid Concentration (FRAP) [2, 5]	Activity in reducing the free oxygen radical DPPH (in words) ([1]; lower concentrations (<100 μg/mL))	Reduction in the number of cells in the G2 phase compared to the control (HT29 cells)
CCCCCc1cc2c3c(c1)OC(C)(C)C1CCC(C)(CC31)O2 (stereo not drawn) [CBT, cannabicitran]	0.280 µg/mL and 0.280 ± 0.190 µg/mL	0.487 ± 0.104 µg/mL	0.593 µg/mL and 0.593 ± 0.278 µg/mL	44.5 µg/mL (≈ 141 µM)	limited the transition of cells from the S phase to the G2 phase	17.93%	41.86 ± 0.64 %	17.90 ± 0.81 %	18.64 ± 0.81 %	19.26 ± 0.67 %	0.353 ± 0.110 µg/mL	0.353 ± 0.201 µg/mL	0.504 ± 0.258 µg/mL	–	–
CCCCCc1cc(O)cc(O)c1C/C=C(\C)CCC=C(C)C [abn-CBG, abnormal cannabigerol]	0.074 ± 0.056 µg/mL	0.216 ± 0.133 µg/mL	0.264 ± 0.198 µg/mL	14.1 µg/mL (≈ 44.6 µM)	–	80.59%	7.97 ± 0.35 %	3.62 ± 0.54 %	5.09 ± 0.50 %	81.92 ± 1.80 %	0.857 ± 0.316 µg/mL	1.059 ± 0.328 µg/mL	1.411 µg/mL and 1.411 ± 0.465 µg/mL	–	–
CCCCCc1cc(O)c2c(c1)OC(C)(CCC=C(C)C)C=C2 (stereo not drawn) [CBC, cannabichromene]	0 µg/mL	0 µg/mL	0.487 ± 0.341 µg/mL	151 µg/mL (≈ 480 µM)	–	1.19%	50.90 ± 0.73%	26.23 ± 0.39 %	16.71 ± 0.37%	2.52 ± 0.10 %	0.151 ± 0.001 µg/mL	0.453 ± 0.104 µg/mL	1.008 ± 0.403 µg/mL	did not express any activity	3.24%
